# US20190022220A1, “LIGHT-ACTIVATED ANCHORING OF THERAPEUTIC FACTORS TO TISSUES” (The Board of Trustees of the Leland Stanford Junior …, priority 2016, published 2019)
# “Also recorded” adds a separate entry of the source.
# Legend:
# [1] = tested on: human mesenchymal stem cells (hMSCs); assay: Live-dead assay of hMSCs encapsulated in collagen gels formed with riboflavin and blue light; assay type: cell-based; settings: 72 hours; riboflavin 0.25 mM or less; 20 sec blue light at 100 mW/cm^2; cells in collagen gel
# Text: A major clinical challenge is the delivery of cells, particularly stem cells, to an diseased or damaged area of the body. Currently, the stem cells are typically injected in suspension to an area without a specific or effective means to have them target and adhere to a particular location. Providing a immobilizing matrix and microenvironment in which to settle and grow while remaining immobilized to that are would be an advancement in the art. Cells can be encapsulated within a biomolecular gel according to the present invention. […] Using this method, hMSCs and other cell types can be encapsulated and positioned to a specific location in the body. For instance, a collagen gel encapsulating hMSCs can be formed and adhered in situ using blue light and riboflavin on the surface of a corneal wound, creating a “living reservoir” of therapeutic factors that are secreted by the immobilized hMSCs. The formed gel adheres to the target tissue due to crosslinks formed between the exogenously applied collagen and the collagen on the wound bed or target tissue which is shown by example in FIG. 9D.
# [2] = tested on: 2 mm corneal debridement wound; assay: Rodent corneal debridement wound healing and ocular tolerance study; assay type: in vivo
# Method: FIGS. 13A-13D show results of EGF surface-coupling by V-CXL in a rodent corneal debridement animal model. A 2 mm corneal debridement was performed in three groups of two rodent eyes each (average corneal diameter=3 mm). Shown here are photographs of fluorescein-stained rodent eyes at 24 hours: EGF encapsulated within a collagen gel using riboflavin and blue light exposure for 5 seconds (FIG. 13A), EGF coupling directly to corneal stroma using riboflavin and blue light exposure for 5 seconds (FIG. 13B), topical EGF only (FIG. 13C), and no treatment (FIG. 13D). Slit lamp photos of the wounded and treated eyes are shown on the left, and fluorescein staining of the same eyes are shown on the right.
# Mouse corneas were subject to 2 mm diameter circular corneal debridement and then treated with (1) a collagen gel solution containing 0.01 mg/ml of EGF, and 0.1 mg/ml riboflavin and exposed to blue light (˜458 nm) for 5 seconds, (2) an aqueous EGF solution containing 0.01 mg/ml EGF and 0.1 mg/ml riboflavin and exposed to blue light for 5 seconds, (3) topical application of an aqueous solution of EGF alone at a concentration of 0.01 mg/mL, or (4) no treatment. The rodents were then examined at 24 hours and the wound areas examined by fluorescein staining.
# In vivo ocular tolerance and wound healing animal study: In an animal study in rodents, V-CXL was used to bind EGF to wounded corneas. Briefly, a 2 mm diameter debridement was performed, and the wound bed was treated topically with 0.025 mM of riboflavin mixed with 0.01 mg/mL of EGF delivered topically to the wound bed and allowed incubate for 10 minutes followed by 5 seconds of exposure to blue light (˜458 nm) at 60 mW/cm^2. The eye was then rinsed with BSS. Controls used were topical EGF alone and no treatment.
# [3] = EGF release from V-CXL collagen gels (ELISA); assay type: physicochemical; settings: 37° C., 2 to 120 hours
# Method: FIG. 9C summarizes the storage and loss modulus of collagen gels crosslinked using riboflavin and blue light exposure of different time intervals.
# Growth factor release. To understand the ability of growth factors to be liberated from crosslinked collagen, human recombinant EGF (Peprotech) was incorporated within collagen gels during gelation. A neutralized 3% collagen solution with 0.25 mM riboflavin was exposed to blue light (˜458 nm) at 60 mW/cm^2 for 20 seconds. The formed gel was then cut into cylindrical discs and placed in a PBS solution with or without 0.1% versus 0.2% collagenase at 37° C. on a shaker. The solution was then sampled at intervals starting at 2 hours to 120 hours. An ELISA kit was then used to evaluate the concentration of released EGF in the solution.
# [4] = tested on: primary rabbit corneal epithelial cells (CECs); assay: Proliferation of corneal epithelial cells on EGF-bound collagen surfaces; assay type: cell-based; settings: over 5 days; EGF bound to collagen by V-CXL vs collagen without covalently linked EGF; both concentrations tested
# Method: Enhanced cell proliferation on growth factor fortified collagen gels. Late-passage primary rabbit corneal epithelial cells (CECs) of the same cell density were grown on surfaces with EGF bound to collagen using V-CXL as well as standard collagen-coated tissue-culture polystyrene without covalently linked EGF.
# [5] = tested on: NGF receptor; assay: Ellipsometry of soluble NGF receptor binding to NGF-coupled collagen surfaces; settings: NGF photochemically coupled to collagen compared to physisorbed NGF
# Text: V-CXL binds growth factors directly to collagen. V-CXL was used to bind EGF and NGF growth factors directly to collagen. Fluorometry (FIG. 3), surface plasmon resonance (FIG. 4), ellipsometry (FIG. 5), and ELISA (FIG. 6) were used to monitor and compare the chemical coupling versus physical adsorption of NGF and EGF to collagen surfaces. In these experiments, collagen was first chemically immobilized to either gold, glass, or polystyrene surfaces (depending on the method being used), followed by V-CXL-mediated coupling of either EGF or NGF (or their fluorescein-isothiocyanate (FITC)-labeled conjugates) to the collagen coating alone or physical adsorption of growth factor to collagen from aqueous solution.
# Exposure of NGF to blue light in the presence of riboflavin led to a step-increase in the layer thickness of the collagen-coated gold wafer.
compound,measurement,setting,value
Cc1cc2nc3c(=O)[nH]c(=O)nc-3n(C[C@H](O)[C@H](O)[C@H](O)CO)c2cc1C [riboflavin],% living hMSCs (viability),[1],greater than 90%
epidermal growth factor [EGF],wound area by fluorescein staining vs topical EGF alone or no treatment,"[2]; 24 hours, 0.01 mg/ml EGF, 0.1 mg/ml riboflavin, blue light (~458 nm) 5 seconds",smaller; also recorded: greater wound area reduction
same,reduction in wound area by fluorescein staining compared with controls,"[2]; 24 hours, EGF-coupled corneas (0.025 mM riboflavin, 0.01 mg/mL EGF, 5 s blue light) vs topical EGF alone and no treatment, n=2",greater reduction in wound area
same,wound area as % of the wound area in topical EGF-treated eyes,"[2]; 24 hours, V-CXL: 0.025 mM riboflavin + 0.01 mg/mL EGF, 5 seconds blue light (~458 nm) at 60 mW/cm^2, n=2, ImageJ analysis",approximately 50%
same,wound area as % of the wound area of untreated eyes,"[2]; 24 hours, V-CXL: 0.025 mM riboflavin + 0.01 mg/mL EGF, 5 seconds blue light at 60 mW/cm^2, n=2, ImageJ analysis",approximately 35%
same,"signs of ocular intolerance (conjunctival injection, swelling, discharge, corneal toxicity)",[2]; eyes treated with EGF and riboflavin in the V-CXL reaction,No signs of ocular intolerance
same,EGF release from collagen gel,[3]; 0.1% versus 0.2% collagenase in PBS,increases the release in a dose-dependent manner; also recorded: accelerated in a dose-dependent manner
same,EGF release from collagen gel,"[3]; PBS alone, 3% collagen, 0.25 mM riboflavin, blue light 60 mW/cm^2 20 seconds",relatively slow release and slow
same,proliferation of senescent primary CECs,[4],greater proliferation
nerve growth factor [NGF],NGF receptor binding (change in relative layer thickness),[5],higher amount of NGF receptor binding; also recorded: greater NGF binding
